Columns and labels:
anaesthetised rats = assay: hyperinsulinemic euglycemic glucose clamp in rats infused with insulin and CGRP; conditions: for steady-state glucose infusion rate necessary to maintain euglycemia: FIG. 2A: insulin 1.8 mU/kg/min for 210 min, CGRP 0.02 ug/kg/min added from 80-150 min; for hepatic glucose output (HGO) / suppression of hepatic glucose output (HGO): FIG. 2B clamp, insulin alone or insulin in the presence of CGRP; for suppression of hepatic glucose output (HGO): from basal 11.2±0.7 mg/kg/min; for mean steady-state glucose infusion rate: FIG. 2B: CGRP 0.02 ug/kg/min plus insulin 1.8 mU/kg/min for 75 min, then insulin alone for 130 min; for mean steady-state plasma insulin level: insulin 1.8 mU/kg/min
Description: In these experiments, the overall glucose disposal rate (GDR) equals the glucose rate plus hepatic glucose output (HGO).
In addition to stimulation of peripheral glucose disposal, another important in vivo glucoregulatory effect of insulin is to inhibit HGO.

[1] = test system: isolated soleus muscle from rats; assay: amylin antagonist assay: incorporation of radiolabelled glucose into glycogen in isolated soleus muscle; type: cell-based, rat
Description: Insulin was obtained as Humulin-R, 100 U/mL, recombinant human insulin (Eli Lilly, Indianapolis, Ind.). […] An antagonist assay was performed in vitro using the isolated soleus muscle from rats.
The right and left soleus muscles of 4-hour fasted rats were removed immediately after decapitation of the animals, divided in half and temporarily placed in physiological saline. Muscles were assigned to different treatment groups so that the 4 muscle pieces from each animal were evenly distributed among the 9 flasks representing the different assay conditions. […] Pharmacologically active agents were added to the 10mL of medium to result in the above stated concentrations and mixtures. […]
Dissolved glycogen was precipitated out by addition of 3 mL absolute ethanol and cooling to -20° C. overnight. […] The remaining glycogen was redissolved in water and scintillation fluid and counted for ^14 C.
From a knowledge of the specific activity of ^14 C-glucose in the 5.5 mM glucose of the incubation medium, and the total ^14 C counts remaining in the glycogen extracted from each muscle, it was possible to determine the net rate of glycogen synthesis over the final 60 minute incubation period. This was normalized per mass of muscle and expressed as μmoles of glucosyl units incorporated into glycogen per hour per gram of muscle. […]

BC3H-1 myocytes = assay: insulin-stimulated glucose uptake in cultured BC3H-1 myocytes; type: cell-based; conditions: 10^-8 M CGRP, all insulin concentrations, FIG. 4
Description: (§1) In vitro studies in isolated adipocytes and cultured BC3H-1 myocytes were also conducted. […] Since 80-90% of in vivo insulin-stimulated glucose disposal represents skeletal muscle glucose uptake, an in vitro muscle cell system was also examined.

isolated adipocytes [2] = assay: 2-deoxyglucose uptake in isolated adipocytes; type: cell-based
Description: as §1

isolated adipocytes [3] = assay: formation of CO2 or triacylglycerol from glucose in isolated adipocytes; type: cell-based
isolated adipocytes [4] = conditions: Cooper et al. 1988; cited from earlier work
normal rats = assay: intravenous amylin bolus in normal rats (hyperglycemia, respiratory quotient); type: in vivo, rat
Description: The hyperglycemia is partly accounted for by an increase in hepatic (endogenous) glucose output and partly by an increased impediment in peripheral glucose disposal.

[5] = test system: isolated incubated skeletal muscles of the rat; assay: effect of amylin on glucose uptake and glycogen synthesis in isolated incubated skeletal muscle; type: cell-based
[6] = test system: spontaneously hypertensive (SHR) rats; conditions: continuous intravenous infusion of purified rat relaxin; single reported study; cited from earlier work
[7] = FIG. 2B protocol, last 20 min of each period

insulin
steady-state glucose infusion rate necessary to maintain euglycemia (anaesthetised rats): 26.7 ± 0.1 mg/kg/min
hepatic glucose output (HGO) (anaesthetised rats): 3.9 ± 2.7 mg/kg/min
suppression of hepatic glucose output (HGO) (anaesthetised rats): 69%
glucose disposal rate (GDR) (anaesthetised rats; FIG. 2B protocol, 3H-glucose, last 20 min of each period, basal GDR 11.2±0.7): 35.6 ± 1.3 mg/kg/min
rise of GDR above basal (anaesthetised rats; [7]): 24 ± 0.9 mg/kg/min
mean steady-state glucose infusion rate (anaesthetised rats): 32.3 ± 0.3 mg/kg/min
mean steady-state plasma insulin level (anaesthetised rats; absence of the CGRP infusion): 695±105 uU/ml
mean steady-state plasma insulin level (anaesthetised rats; presence of the CGRP infusion): 591±86 uU/ml
increase in rate of glycogen synthesis ([1]; 1000 μU/mL insulin added to media): 3.7 fold

calcitonin gene-related peptide [CGRP]
effect on insulin-stimulated glucose uptake (BC3H-1 myocytes): significantly inhibited
inhibition of insulin-stimulated GDR (anaesthetised rats; CGRP infusion rate 0.005 ug/kg/min): no inhibition
inhibition of insulin-stimulated GDR (anaesthetised rats; CGRP infusion rate 0.01 ug/kg/min): intermediate effect
steady-state glucose infusion rate necessary to maintain euglycemia (anaesthetised rats): 18.0 ± 0.1 mg/kg/min
hepatic glucose output (HGO) (anaesthetised rats): 8.0 mg/kg/min
suppression of hepatic glucose output (HGO) (anaesthetised rats): 29%
rise of GDR above basal (anaesthetised rats; [7]): 7.4 ± 1.6 mg/kg/min
mean steady-state glucose infusion rate (anaesthetised rats): 9.9 ± 0.3 mg/kg/min
effect on basal or insulin-stimulated 2-deoxyglucose uptake (isolated adipocytes [2]): no effect

amylin
effect on basal or insulin-stimulated rates of formation of CO2 or triacyglycerol (isolated adipocytes [3]): no effect
effect on basal or insulin-stimulated incorporation of glucose into CO2 or triglyceride (isolated adipocytes [4]): does not influence
decrease of insulin-stimulated rate of glycogen synthesis ([1]; 20 nM amylin, 1000 μU/mL insulin): approximately 83%
persistence of hyperglycemia (normal rats; 100 μg intravenous bolus): persists for several hours
time to hyperglycemia at diabetic levels (normal rats; 100 μg intravenous bolus): 15 to 30 min
blood glucose level reached (hyperglycemia) (normal rats; 100 μg intravenous bolus, eight normal rats): around 200 mg/dL
change in respiratory quotient (RQ) (normal rats; during somatostatin infusion (no endogenous insulin release), fasted animal): no change in RQ
change in respiratory quotient (RQ) (normal rats; somatostatin absent, insulin allowed to increase): increase in respiratory quotient
reduction in the basal rate of glycogen synthesis ([5]; basal insulin concentration 1 uU/ml): 30%
response of amylin-treated muscles to insulin ([5]; insulin concentration giving half-maximal stimulation in non amylin-treated muscles): no response to insulin
insulin concentration needed to overcome the effect of amylin in muscle ([5]; supra-physiological level): 1000 uU/ml

relaxin
effect on systolic blood pressure [6]: highly effective in reducing systolic blood pressure
